Results on one substance are retold here after patent EP3045469A1, “POLYMYXIN DERIVATIVE AND USES THEREOF” (priority 2015, dated 2016).

Where “and” joins values, the source holds several entries; their conditions need not be identical. Identical values can stand only once. Like-named read-outs stand apart in the source and are kept apart here.

The conditions of data set [1]: dogs; cited from earlier work.
The conditions of data set [2]: monkeys; cited from earlier work.
The next data set deals with E. coli JMI 109. Briefly: MIC assay (CLSI broth microdilution; checkerboard with rifampin). The settings on record: in combination with rifampin (0.25 µg/mL), duplicate checkerboard assays; polymyxin-nonsusceptible strain. It counts as cell-based, Escherichia coli. The protocol:
(§1) Synergy studies were performed by using polymyxin derivatives in combination with rifampin, a model compound for such antibacterial agents that the intact outer membrane of Gram-negative bacteria acts as a permeability barrier.

Data set [3] can be described thus: Toxicokinetics (plasma and urine levels by LC-MS/MS) in cynomolgus monkeys. The protocol: For seven days, the animals were dosed by intravenous (IV) infusion three times daily (TID) at a dose volume of 10 mL/kg for 1 hour (± 10 minutes), 8 ± 0.5 hours apart. The day of initial dose administration was designated study Day 1, with subsequent days consecutively numbered. Days prior to the initial dose administration were consecutively numbered with the final day of acclimation referenced as Day -1.
The following parameters were evaluated at designed intervals: clinical observations, body weights, clinical pathology (hematology, coagulation, serum chemistry, urinalysis including urine sediments and urine chemistry), toxi-cokinetics (plasma and urine) and anatomic pathology (kidney). In cases of animals sacrificed on an unscheduled basis, samples were taken on the day of the sacrifice.
Plasma and urine concentrations for toxicokinetic (TK) studies were determined by using liquid chromatograph interfaced with a mass spectrometer after precipitation of proteins. A sample (100 µL) was mixed with internal standard solution in water:formic acid (99:1 v/v; […]). Then, 600µL of 100:1 acetonitrile:formic acid was added. The plates were centrifuged at 3200 rpm for 5 minutes. Using a Tomtec Quadra96, a 450 µL aliquot was transferred to a new 96-well plate and dried under nitrogen at 40°C. Then, 200 µL of water:methanol:formic acid (85:15:1 1 v/v) was added and the plate sealed for LC-MS/MS injection. LC-MS system consisted of Waters Acquity liquid chromatograph interfaced with a Thermo Scientific TSQ Quantitative triple quadrupole MS with ionization in the positive ion mode. Each sample (20 µL) was injected onto a Waters Acquity BEH Shield RP18 column (2.1 x 50 mm; 1.7 µm) equilibrated at 50°C. Mobile Phase A was 85:15:1 v/v water:methanol:formic acid. Mobile Phase B was 50:50:1 v/v acetonitrile:methanol:formic acid.
Peak area ratios from the calibration standard responses were regressed using a (1/concentration^2) linear fit for polymyxin B using colistin as the internal standard. For NAB739 and NAB815, peak areas from the calibration standard responses were regressed using a (1/concentration^2) quadratic fit (without the use of an internal standard).
Toxicokinetic analysis was performed by using WinNonlin Phoenix version 6.3 software (Pharsight, Cary, NC). For plasma TK, noncompartmental IV infusion model was used.
The data is from the cynomolgus monkey studies described in the Example 3, where the peptides were administered as a 1-hour intravenous infusion thrice a day. The plasma and urine levels of the peptides were determined as in Example 3.

For the next data set, the system named is Escherichia coli C175-94. The experiment in a line: Murine urinary infection efficacy study. It counts as in vivo. As for the experimental part:
The study used 64 outbred, OF-1 female mice (Charles River, France) weighing 28 -32 grams and Escherichia coli C175-94 (serotype O8:K48:H4), a clinical isolate elaborating type 1fimbriae. The peptides were NAB815 (Lot 1054308) and polymyxin B (Sigma-Aldrich, batch BCBF8382V). The study was performed by Statens Serum Institut, Copenhagen, Denmark.
Three days before the start of the study and during the study, the mice had free access to 5% glucose as drinking water.
On day 0, the urine was removed from the bladder by gently pressing the abdomen, Thereafter, the mouse was anaesthetized with approximately 0.15 ml of Zoletil mix s.c. A syringe with polyethylene catheter (Becton Dickison) containing the bacterial suspension was inserted via the urethra into the bladder and 50 µl of the bacterial inoculum was slowly injected into the bladder. Hereafter, the mouse was left in the cage. Mice were kept in a warming cabinet and were under surveillance until fully awake.
After measuring the colony forming units (CFUs), the inoculum was determined to contain 9.38 log10 CFU/ml, corresponding to 8.08 log10 CFU/mouse.
On day 1 and on day 2 postinfection, the mice were treated subcutaneously with solutions (0.2 ml) containing NAB815, polymyxin B or vehicle (0.9% NaCl) twice a day. The treatment groups (six mice in each) were the following: vehicle control; NAB815, 0.25 mg/kg/dose; NAB815, 0.5 mg/kg/dose; NAB815, 1 mg/kg/dose; NAB815, 2 mg/kg/dose; polymyxin B, 0.25 mg/kg/dose; polymyxin B, 0.5 mg/kg/dose; polymyxin B, 1 mg/kg/dose; and polymyxin B, 2 mg/kg/dose. In addition, one group served as a pretreatment control to help to assess as how the infection has proceeded before the start of the treatment on day 1 postinfection.
On days 1, 2 and 3 postinfection urine was sampled for colony counts. On day 1 postinfection (pretreatment control group) and on day 3 postinfection (all the other groups) after the urine sample was taken, mice were sacrificed by cervical dislocation and bladder and kidneys were removed aseptically. The bladder and kidneys were stored at -80 °C and later homogenized in 0.5 and 1 ml saline, respectively.
CFUs in urine were determined immediately within 2-3 hours after sampling. Frozen organs were thawed and homogenized with steel beads on a tissue lyser. All samples, urine, kidney and bladder, were 10 fold diluted in saline and 20-µl spots were applied on blood agar plates in duplicates. In addition, undiluted samples of urine (2-100 µl depending on the amount of urine) were spread on a separate agar plate to determine the lowest possible detection level of the colony counts. All agar plates were incubated 18-22 h at 35 °C in ambient air.

The subject of the next data set is E. coli ATCC 25922. As for the experimental part:
as §1

For another data set, the system named is E. coli JMI 3328. The protocol: as §1
A further data set relates to P. aeruginosa JMI 7445. The protocol: as §1
A further data set deals with A. baumannii CMI 417. The experiment in a line: MIC assay (CLSI broth microdilution; checkerboard with rifampin). Format: cell-based, Acinetobacter baumannii. Conditions: in combination with rifampin (0.25 µg/mL), duplicate checkerboard assays; polymyxin-nonsusceptible strain. As for the experimental part:
as §1

The conditions of data set [4]: patients, in selected materials; cited from earlier work.
The conditions of data set [5]: rats; cited from earlier work.
The next data set relates to K. pneumoniae JMI 27068. The experiment in a line: MIC assay (CLSI broth microdilution; checkerboard with rifampin). Format: cell-based, Klebsiella pneumoniae. The settings on record: in combination with rifampin (0.25 µg/mL), duplicate checkerboard assays; polymyxin-nonsusceptible strain. The protocol:
as §1

Where [6] appears, read: of all the 24 mice treated at 0.25-2 mg/kg/dose.
[7] abbreviates: alone, Müller-Hinton II broth, 35°C, 20 hours.
The mark [8] stands for this setting: in combination with rifampin (0.25 µg/mL), duplicate checkerboard assays.

For the substance Polymyxin B, the “S-Crea and BUN response” value in data set [1] is “elicited a rapid onset of S-Crea and BUN response”; in data set [2], “elicited a rapid onset of S-Crea and BUN response”; in [5] it was “lack of response”. Moreover, the MIC in the data set on E. coli JMI 109 was 0.5 to 1 µg/mL; in the data set on E. coli ATCC 25922 (setting [7]) it was 2 µg/mL; in the data set with E. coli ATCC 25922 (setting [8]), 0.5 to 1 µg/mL; in the data set on E. coli JMI 3328 (setting [7]), 2 µg/mL; in the data set on E. coli JMI 3328 (setting [8]), 0.5 to 1 µg/mL; in the data set on P. aeruginosa JMI 7445 (setting [7]), 2 µg/mL. Also, the minimal inhibitory concentration (MIC) in the data set with P. aeruginosa JMI 7445 (setting [8]), in the data set with A. baumannii CMI 417 and in the data set on K. pneumoniae JMI 27068 was 1 µg/mL in each case. In addition, the “concentration in the urine” value in data set [3] (after infusion at 8 mg/kg, highest found either in the 0-4 h or 4-8 h sample, given for each animal, 8 mg/kg) is 7000 ng/mL and 9000 ng/mL and 15000 ng/mL. For the same substance, the “0-8 h recovery in urine” value in data set [3] (after the infusion of 8 mg/kg, percentages given for each animal, 8 mg/kg) was 1 % of the dose and 2 % of the dose (2×). Also, the “Area under the concentration-time from time 0 h to 8 h (AUCs 0-8h)” value in [3] (plasma, after the infusion of 8 mg/kg, day 1) was 112 (SD=5) hr*µg/mL. Also, the “dose-response in the CFUs in the bladder and in the kidneys” value in the data set on Escherichia coli C175-94 (mice, 0.25-2 mg/kg/dose subcutaneously twice a day) was “did not show any dose-response tendency”. Also, the “CFU levels in urine, day 3 versus pretreatment control group on day 1 postinfection” value in the data set on Escherichia coli C175-94 (mice, any dose group (0.25, 0.5, 1, 2 mg/kg/dose) subcutaneously twice a day) was “no significant differences”. Besides, the “number of mice with bacterial levels below the detection limit in the kidneys” value in the data set on Escherichia coli C175-94 (setting [6]) is listed as 10. The “number of mice with bacterial levels below the detection limit in the urine” value in the data set on Escherichia coli C175-94 (setting [6]) is listed as 1. In addition, the nephrotoxicity rate in data set [4] is on record as at most 55%.
